Patent publication US6436943B1 (dated 2002)

| Structure (SMILES) | melting point [°C] |
| --- | --- |
| COC(=O)C1=C(C)NC(c2ccccn2)=NC1c1ccc(C#N)cc1 (stereo not shown) | 141 to 143 |
| CCOC(=O)C1=C(C)NC(c2ccncc2)=NC1c1ccccc1Cl (stereo not shown) | 101 to 103 |
| COC(=O)C1=C(C)NC(c2ccccn2)=NC1c1ccc(F)cc1[N+](=O)[O-] (stereo not shown) | 175 to 176 |
| COC(=O)C1=C(C)NC(c2ccccn2)=NC1c1ccsc1 (stereo not shown) | 108 to 109 |
| COC(=O)C1=C(C)NC(c2ccccn2)=NC1c1ccc(-n2ccnn2)cc1 (stereo not shown) | 149 to 150 |
| COC(=O)C1=C(C)NC(c2ccccn2)=NC1C1CCCCC1.Cl (stereo not shown) | 149 to 150 |
| COC(=O)C1=C(C)NC(c2ccccn2)=NC1c1cccc2sc(-c3ccccc3)nc12 (stereo not shown) | 172 to 173 |
| COC(=O)C1=C(C)NC(c2cccnc2)=NC1c1ccccc1Cl (stereo not shown) | 131 to 133 |
| COC(=O)C1=C(C)NC(c2ccccn2)=NC1c1cc([N+](=O)[O-])ccc1Cl (stereo not shown) | 151 to 153 |
| COC(=O)C1=C(C)NC(c2ccccn2)=NC1c1ccccc1[N+](=O)[O-] (stereo not shown) | 167 to 168 |
| COC(=O)C1=C(C)NC(c2ccccn2)=NC1c1ccc(Cl)cc1 (stereo not shown) | 201 to 202 |
| COOCC1=C(C)NC(c2ccccn2)=NC1c1cccc(Cl)c1 (stereo not shown) | 122 to 123 |
| COOCC1=C(C)NC(c2ccccn2)=NC1c1cccc([N+](=O)[O-])c1 (stereo not shown) | 179 to 180 |
| COOCC1=C(C)NC(c2ccccn2)=NC1c1ccco1 (stereo not shown) | 122 to 124 |
| COOCC1=C(C)NC(c2ccccn2)=NC1c1ccccc1O (stereo not shown) | 131 to 132 |
| COC(=O)C1=C(C)NC(c2ccccn2)=NC1c1cccc2ncc(-c3ccccc3)cc12 (stereo not shown) | 176 to 177 |

Second part, the compound after the results:

| melting point [°C] | Structure (SMILES) |
| --- | --- |
| 101 to 103 | CCOC(=O)C1=C(C)NC(c2ccccn2)=NC1c1ccccc1 (stereo not shown) |
| 103 to 104 | COC(=O)C1=C(C)NC(c2ccccn2)=NC1c1ccccc1OC (stereo not shown) |
| 100 to 101 | COC(=O)C1=C(C)NC(c2ccccn2)=NC1c1ccccc1C (stereo not shown) |
| 93 to 95 | CC1=C(C(=O)OC(C)C)C(c2ccccc2Cl)N=C(c2ccccn2)N1 (stereo not shown) |
| 125 to 127 | COC(=O)C1=C(C)NC(c2ccccn2)=NC1c1cccc(Cl)c1Cl (stereo not shown) |
| 176 to 178 | CCCCOC(=O)C1=C(C)NC(c2ccccn2)=NC1c1ccccc1Cl (stereo not shown) |
| 138 to 139 | CC1=C(C(=O)OCCC#N)C(c2ccccc2Cl)N=C(c2ccccn2)N1 (stereo not shown) |
| 217 to 218 | COC(=O)C1=C(C)NC(c2ccccn2)=NC1c1ccccc1F (stereo not shown) |
| 105 to 110 | CCCOOCC1=C(C)NC(c2ccccn2)=NC1c1ccccc1Cl (stereo not shown) |
